Source: ChEMBL document CHEMBL1135314, “Synthesis of tag introducible (3-trifluoromethyl)phenyldiazirine based photoreactive phenylalanine” (Bioorg Med Chem Lett, 2002)

Assay: Half life of compound was determined.
Assay type: ADME

Structure (SMILES) | half-life [min]
N[C@@H](Cc1ccc(C2(C(F)(F)F)N=N2)cc1OCCNC(=O)CCCC[C@@H]1SC[C@@H]2NC(=O)N[C@@H]21)C(=O)O | 2.6
N[C@@H](Cc1ccc(C2(C(F)(F)F)N=N2)cc1OCCOCCOCCNC(=O)CCCC[C@@H]1SC[C@@H]2NC(=O)N[C@@H]21)C(=O)O | 2.3
